Test results taken from ChEMBL document CHEMBL5724914, “Linking interpersonal differences in gut microbiota composition and drug biotransformation activity” (2024).

Test: (§1) The drug is tested on Z-021 corresponding to metagenome with ENA study accession number: PRJEB37062 and ENA sample accession number: ERS12561820 for biotransformation under anaerobic condition. The drug concentrations were measured over 9 timepoints collected between 0 and 24 hours of incubation by liquid-chromatography-coupled mass spectrometry (LC–MS)
Settings: 2 µM
Further: call rule not given here.

Row | Bacterial Biotransformation | SMILES
1 | Compound metabolized | CCOc1ccc2nc(S(N)(=O)=O)sc2c1 [ETHOXZOLAMIDE]
2 | Compound NOT metabolized | CC1Cc2ccccc2N1NC(=O)c1ccc(Cl)c(S(N)(=O)=O)c1 (stereo not given) [INDAPAMIDE]

Row | SMILES | Bacterial Biotransformation
3 | Br.CN1CCC[C@@H]1Cc1c[nH]c2ccc(CCS(=O)(=O)c3ccccc3)cc12 [ELETRIPTAN HYDROBROMIDE] | Compound NOT metabolized

Test: (§2) The drug is tested on WLS-027 corresponding to human gut metagenome with ENA study accession number: PRJEB37062 and ENA sample accession number: ERS12561744 for biotransformation under anaerobic condition. The drug concentrations were measured over 9 timepoints collected between 0 and 24 hours of incubation by liquid-chromatography-coupled mass spectrometry (LC–MS)
Settings: 2 µM

Row | Bacterial Biotransformation | SMILES
4 | Compound NOT metabolized | CCOc1ccc2nc(S(N)(=O)=O)sc2c1 [ETHOXZOLAMIDE]
5 | Compound NOT metabolized | CC1Cc2ccccc2N1NC(=O)c1ccc(Cl)c(S(N)(=O)=O)c1 (stereo not given) [INDAPAMIDE]

Row | SMILES | Bacterial Biotransformation
6 | Br.CN1CCC[C@@H]1Cc1c[nH]c2ccc(CCS(=O)(=O)c3ccccc3)cc12 [ELETRIPTAN HYDROBROMIDE] | Compound NOT metabolized

Settings: human gut metagenome, 24 h, 2 µM

Row | Bacterial Biotransformation | SMILES
7 | Compound NOT metabolized | CCOc1ccc2nc(S(N)(=O)=O)sc2c1 [ETHOXZOLAMIDE]
8 | Compound NOT metabolized | CC1Cc2ccccc2N1NC(=O)c1ccc(Cl)c(S(N)(=O)=O)c1 (stereo not given) [INDAPAMIDE]

Row | SMILES | Bacterial Biotransformation
9 | Br.CN1CCC[C@@H]1Cc1c[nH]c2ccc(CCS(=O)(=O)c3ccccc3)cc12 [ELETRIPTAN HYDROBROMIDE] | Compound NOT metabolized

Test: as §2, with “Z-018” for “WLS-027”, “pig” for “human”, “ERS12561817” for “ERS12561744”
Settings: 2 µM

Row | Bacterial Biotransformation | SMILES
10 | Compound NOT metabolized | CCOc1ccc2nc(S(N)(=O)=O)sc2c1 [ETHOXZOLAMIDE]
11 | Compound NOT metabolized | CC1Cc2ccccc2N1NC(=O)c1ccc(Cl)c(S(N)(=O)=O)c1 (stereo not given) [INDAPAMIDE]

Row | SMILES | Bacterial Biotransformation
12 | Br.CN1CCC[C@@H]1Cc1c[nH]c2ccc(CCS(=O)(=O)c3ccccc3)cc12 [ELETRIPTAN HYDROBROMIDE] | Compound NOT metabolized

Settings: human gut metagenome, 24 h, 2 µM
Remark: another data set of the same source

Row | Bacterial Biotransformation | SMILES
13 | Compound NOT metabolized | CCOc1ccc2nc(S(N)(=O)=O)sc2c1 [ETHOXZOLAMIDE]
14 | Compound NOT metabolized | CC1Cc2ccccc2N1NC(=O)c1ccc(Cl)c(S(N)(=O)=O)c1 (stereo not given) [INDAPAMIDE]

Row | SMILES | Bacterial Biotransformation
15 | Br.CN1CCC[C@@H]1Cc1c[nH]c2ccc(CCS(=O)(=O)c3ccccc3)cc12 [ELETRIPTAN HYDROBROMIDE] | Compound NOT metabolized

Settings: human gut metagenome, 24 h, 2 µM
Remark: another data set of the same source

Row | Bacterial Biotransformation | SMILES
16 | Compound NOT metabolized | CCOc1ccc2nc(S(N)(=O)=O)sc2c1 [ETHOXZOLAMIDE]
17 | Compound NOT metabolized | CC1Cc2ccccc2N1NC(=O)c1ccc(Cl)c(S(N)(=O)=O)c1 (stereo not given) [INDAPAMIDE]

Row | SMILES | Bacterial Biotransformation
18 | Br.CN1CCC[C@@H]1Cc1c[nH]c2ccc(CCS(=O)(=O)c3ccccc3)cc12 [ELETRIPTAN HYDROBROMIDE] | Compound NOT metabolized

Test: as §2, with “WLS-086” for “WLS-027”, “ERS12561752” for “ERS12561744”
Settings: 2 µM

Row | Bacterial Biotransformation | SMILES
19 | Compound metabolized | CCOc1ccc2nc(S(N)(=O)=O)sc2c1 [ETHOXZOLAMIDE]
20 | Compound NOT metabolized | CC1Cc2ccccc2N1NC(=O)c1ccc(Cl)c(S(N)(=O)=O)c1 (stereo not given) [INDAPAMIDE]

Row | SMILES | Bacterial Biotransformation
21 | Br.CN1CCC[C@@H]1Cc1c[nH]c2ccc(CCS(=O)(=O)c3ccccc3)cc12 [ELETRIPTAN HYDROBROMIDE] | Compound metabolized

Test: as §2, with “Z-014” for “WLS-027”, “rat” for “human”, “ERS12561814” for “ERS12561744”
Settings: 2 µM

Row | Bacterial Biotransformation | SMILES
22 | Compound NOT metabolized | CCOc1ccc2nc(S(N)(=O)=O)sc2c1 [ETHOXZOLAMIDE]
23 | Compound NOT metabolized | CC1Cc2ccccc2N1NC(=O)c1ccc(Cl)c(S(N)(=O)=O)c1 (stereo not given) [INDAPAMIDE]

Row | SMILES | Bacterial Biotransformation
24 | Br.CN1CCC[C@@H]1Cc1c[nH]c2ccc(CCS(=O)(=O)c3ccccc3)cc12 [ELETRIPTAN HYDROBROMIDE] | Compound NOT metabolized

Settings: human gut metagenome, 24 h, 2 µM
Remark: another data set of the same source

Row | Bacterial Biotransformation | SMILES
25 | Compound NOT metabolized | CCOc1ccc2nc(S(N)(=O)=O)sc2c1 [ETHOXZOLAMIDE]
26 | Compound NOT metabolized | CC1Cc2ccccc2N1NC(=O)c1ccc(Cl)c(S(N)(=O)=O)c1 (stereo not given) [INDAPAMIDE]

Row | SMILES | Bacterial Biotransformation
27 | Br.CN1CCC[C@@H]1Cc1c[nH]c2ccc(CCS(=O)(=O)c3ccccc3)cc12 [ELETRIPTAN HYDROBROMIDE] | Compound metabolized

Test: as §2, with “WLS-082” for “WLS-027”, “ERS12561751” for “ERS12561744”
Settings: 2 µM

Row | Bacterial Biotransformation | SMILES
28 | Compound NOT metabolized | CCOc1ccc2nc(S(N)(=O)=O)sc2c1 [ETHOXZOLAMIDE]
29 | Compound NOT metabolized | CC1Cc2ccccc2N1NC(=O)c1ccc(Cl)c(S(N)(=O)=O)c1 (stereo not given) [INDAPAMIDE]

Row | SMILES | Bacterial Biotransformation
30 | Br.CN1CCC[C@@H]1Cc1c[nH]c2ccc(CCS(=O)(=O)c3ccccc3)cc12 [ELETRIPTAN HYDROBROMIDE] | Compound NOT metabolized

Test: as §2, with “Z-019” for “WLS-027”, “rat” for “human”, “ERS12561818” for “ERS12561744”
Settings: 2 µM

Row | Bacterial Biotransformation | SMILES
31 | Compound NOT metabolized | CCOc1ccc2nc(S(N)(=O)=O)sc2c1 [ETHOXZOLAMIDE]
32 | Compound NOT metabolized | CC1Cc2ccccc2N1NC(=O)c1ccc(Cl)c(S(N)(=O)=O)c1 (stereo not given) [INDAPAMIDE]

Row | SMILES | Bacterial Biotransformation
33 | Br.CN1CCC[C@@H]1Cc1c[nH]c2ccc(CCS(=O)(=O)c3ccccc3)cc12 [ELETRIPTAN HYDROBROMIDE] | Compound NOT metabolized

Test: as §2, with “Z-001” for “WLS-027”, “mouse” for “human”, “ERS12561801” for “ERS12561744”
Settings: 2 µM

Row | Bacterial Biotransformation | SMILES
34 | Compound NOT metabolized | CCOc1ccc2nc(S(N)(=O)=O)sc2c1 [ETHOXZOLAMIDE]
35 | Compound NOT metabolized | CC1Cc2ccccc2N1NC(=O)c1ccc(Cl)c(S(N)(=O)=O)c1 (stereo not given) [INDAPAMIDE]

Row | SMILES | Bacterial Biotransformation
36 | Br.CN1CCC[C@@H]1Cc1c[nH]c2ccc(CCS(=O)(=O)c3ccccc3)cc12 [ELETRIPTAN HYDROBROMIDE] | Compound NOT metabolized

Test: as §2, with “WLS-090” for “WLS-027”, “ERS12561753” for “ERS12561744”
Settings: 2 µM

Row | Bacterial Biotransformation | SMILES
37 | Compound metabolized | CCOc1ccc2nc(S(N)(=O)=O)sc2c1 [ETHOXZOLAMIDE]
38 | Compound NOT metabolized | CC1Cc2ccccc2N1NC(=O)c1ccc(Cl)c(S(N)(=O)=O)c1 (stereo not given) [INDAPAMIDE]

Row | SMILES | Bacterial Biotransformation
39 | Br.CN1CCC[C@@H]1Cc1c[nH]c2ccc(CCS(=O)(=O)c3ccccc3)cc12 [ELETRIPTAN HYDROBROMIDE] | Compound metabolized

Settings: human gut metagenome, 24 h, 2 µM
Remark: another data set of the same source

Row | Bacterial Biotransformation | SMILES
40 | Compound NOT metabolized | CCOc1ccc2nc(S(N)(=O)=O)sc2c1 [ETHOXZOLAMIDE]
41 | Compound NOT metabolized | CC1Cc2ccccc2N1NC(=O)c1ccc(Cl)c(S(N)(=O)=O)c1 (stereo not given) [INDAPAMIDE]

Row | SMILES | Bacterial Biotransformation
42 | Br.CN1CCC[C@@H]1Cc1c[nH]c2ccc(CCS(=O)(=O)c3ccccc3)cc12 [ELETRIPTAN HYDROBROMIDE] | Compound NOT metabolized

Test: as §2, with “Z-017” for “WLS-027”, “mouse” for “human”, “ERS12561816” for “ERS12561744”
Settings: 2 µM

Row | Bacterial Biotransformation | SMILES
43 | Compound NOT metabolized | CCOc1ccc2nc(S(N)(=O)=O)sc2c1 [ETHOXZOLAMIDE]
44 | Compound NOT metabolized | CC1Cc2ccccc2N1NC(=O)c1ccc(Cl)c(S(N)(=O)=O)c1 (stereo not given) [INDAPAMIDE]

Row | SMILES | Bacterial Biotransformation
45 | Br.CN1CCC[C@@H]1Cc1c[nH]c2ccc(CCS(=O)(=O)c3ccccc3)cc12 [ELETRIPTAN HYDROBROMIDE] | Compound NOT metabolized

Settings: human gut metagenome, 24 h, 2 µM
Remark: another data set of the same source

Row | Bacterial Biotransformation | SMILES
46 | Compound NOT metabolized | CCOc1ccc2nc(S(N)(=O)=O)sc2c1 [ETHOXZOLAMIDE]
47 | Compound NOT metabolized | CC1Cc2ccccc2N1NC(=O)c1ccc(Cl)c(S(N)(=O)=O)c1 (stereo not given) [INDAPAMIDE]

Row | SMILES | Bacterial Biotransformation
48 | Br.CN1CCC[C@@H]1Cc1c[nH]c2ccc(CCS(=O)(=O)c3ccccc3)cc12 [ELETRIPTAN HYDROBROMIDE] | Compound NOT metabolized

Test: as §2, with “WLS-039” for “WLS-027”, “ERS12561746” for “ERS12561744”
Settings: 2 µM

Row | Bacterial Biotransformation | SMILES
49 | Compound NOT metabolized | CCOc1ccc2nc(S(N)(=O)=O)sc2c1 [ETHOXZOLAMIDE]
50 | Compound NOT metabolized | CC1Cc2ccccc2N1NC(=O)c1ccc(Cl)c(S(N)(=O)=O)c1 (stereo not given) [INDAPAMIDE]

Row | SMILES | Bacterial Biotransformation
51 | Br.CN1CCC[C@@H]1Cc1c[nH]c2ccc(CCS(=O)(=O)c3ccccc3)cc12 [ELETRIPTAN HYDROBROMIDE] | Compound NOT metabolized

Test: as §1, with “Z-010” for “Z-021”, “ERS12561810” for “ERS12561820”
Settings: 2 µM

Row | Bacterial Biotransformation | SMILES
52 | Compound NOT metabolized | CCOc1ccc2nc(S(N)(=O)=O)sc2c1 [ETHOXZOLAMIDE]
53 | Compound NOT metabolized | CC1Cc2ccccc2N1NC(=O)c1ccc(Cl)c(S(N)(=O)=O)c1 (stereo not given) [INDAPAMIDE]

Row | SMILES | Bacterial Biotransformation
54 | Br.CN1CCC[C@@H]1Cc1c[nH]c2ccc(CCS(=O)(=O)c3ccccc3)cc12 [ELETRIPTAN HYDROBROMIDE] | Compound NOT metabolized

Test: as §1, with “Z-005” for “Z-021”, “ERS12561805” for “ERS12561820”
Settings: 2 µM

Row | Bacterial Biotransformation | SMILES
55 | Compound NOT metabolized | CCOc1ccc2nc(S(N)(=O)=O)sc2c1 [ETHOXZOLAMIDE]
56 | Compound NOT metabolized | CC1Cc2ccccc2N1NC(=O)c1ccc(Cl)c(S(N)(=O)=O)c1 (stereo not given) [INDAPAMIDE]

Row | SMILES | Bacterial Biotransformation
57 | Br.CN1CCC[C@@H]1Cc1c[nH]c2ccc(CCS(=O)(=O)c3ccccc3)cc12 [ELETRIPTAN HYDROBROMIDE] | Compound NOT metabolized

Test: as §2, with “WLS-170” for “WLS-027”, “ERS12561762” for “ERS12561744”
Settings: 2 µM

Row | Bacterial Biotransformation | SMILES
58 | Compound metabolized | CCOc1ccc2nc(S(N)(=O)=O)sc2c1 [ETHOXZOLAMIDE]
59 | Compound NOT metabolized | CC1Cc2ccccc2N1NC(=O)c1ccc(Cl)c(S(N)(=O)=O)c1 (stereo not given) [INDAPAMIDE]

Row | SMILES | Bacterial Biotransformation
60 | Br.CN1CCC[C@@H]1Cc1c[nH]c2ccc(CCS(=O)(=O)c3ccccc3)cc12 [ELETRIPTAN HYDROBROMIDE] | Compound metabolized
